Measured values published in patent publication US20100080762A1, “SKIN CARE COMPOSITION” (priority 2006, published 2010).

Assays:
Type in all cases: cell-based, human
HBD2 = assay: Cytokine mix-induced keratinocyte inflammation model, HBD2 mRNA expression (real-time PCR); conditions: NHEK; for HBD2, % compared to the control treated only with cytokine mix: 2 h pre-treatment, cytokine mix 24 h
Experimental: (§1) Two assays were performed to investigate the effect of selected compounds of this invention in an inflammation model with human skin keratinocytes.
(§2) In this model, the association of 3 cytokines that induce a strong synergistic effect on keratinocytes in culture (Boniface K, Diveu C, Morel F, Pedretti N, Froger J, Ravon E, Garcia M, Venereau E, Preisser L, Guignouard E, Guillet G, Dagregorio G, Pene J, Moles J P, Yssel H, Chevalier S, Bernard F X, Gascan H, Lecron J C. Oncostatin M secreted by skin infiltrating T lymphocytes is a potent keratinocyte activator involved in skin inflammation. J Immunol. 2007 Apr. 1;178(7):4615-22), is used to measure the expression of selected markers for keratinocyte inflammation: the antibacterial/chemoattractive markers S100A7/psoriasin and defensin HBD2/4
(§3) Normal human epidermal keratinocytes (NHEK pool K015, 3e passage) were cultured under the following conditions: • Culture: 37° C., 5% CO2 • Culture medium: SFM (Invitrogen 17005075) • Epidermal Growth Factor 0.25 ng/ml and pituitary extract 25 μg/ml • (EGF, EP, Invitrogen 17005075) • Gentamycine 25 μg/ml (Sigma G1397) • Assay medium: SFM without EGF and pituitary extract (Invitrogen 17005075)
(§4) Keratinocytes were pre-cultivated in culture medium. At confluence, the culture medium was changed into assay medium (SFM without EGF and pituitary extract) containing or not (control) the test compounds and the cells were pre-treated for 2 h at 37° C. and 5% CO2. At the end of the pre-treatment, the cytokine mix consisting of oncostatin M (OSM), IL-17 and […], was added to the cultures for 24 h at 37° C. and 5% CO2 (a non-treated and non-stimulated control was run in parallel). At the end of the experiment, the cells were washed in PBS buffer (Invitrogen 14190094) and immediately frozen at −80° C. with 300 μl per well of Tri-reagent (Sigma T9424).
(§5) Primers couples allowing the amplification of a specific PCR product from each selected marker were used. Liver glyceraldehyde 3-phosphate dehydrogenase (G3PDH) was used as a reference marker in this experiment.
Defensin beta 4 (DEFB4), beta-defensin 2 (hBD2, DEFB2);
skin-antimicrobial peptide 1 (SAP1) HBD2 NM_004942
(§6) RNA Extraction and Reverse Transcription • Extraction of total RNA by Tri-Reagent according to the protocol recommended by the supplier. • Elimination of contaminant DNA by DNAse treatment using the “DNA-free” system (Ambion). • Reverse-transcription of mRNA in the presence of oligo(dT) and Superscript II reversetranscriptase (Invitrogen).
(§7) The PCR reactions (Polymerase Chain Reactions) were performed using the LightCycler® system (Roche Molecular Systems Inc.) according to the protocol recommended by the supplier. This system allows rapid and powerful PCR reactions.
(§8) The reaction mix (10 μl final) was added as follows: • 2.5 μl of cDNA diluted at 1/10e. • primers forward and reverse • reagent mix (Roche) containing tag DNA polymerase, SYBR Green I and MgCl2.
(§9) The incorporation of fluorescence in amplified DNA was measured continuously during the PCR cycles. […] The RE value was expressed in arbitrary units (AU) according to the formula:
(§10) (½ number of cycles)×10^6

S100A7/psoriasin = assay: Cytokine mix-induced keratinocyte inflammation model, S100A7 mRNA expression (real-time PCR); conditions: NHEK; for S100A7, % compared to the control treated only with cytokine mix: 2 h pre-treatment, cytokine mix 24 h
Experimental: as §1, §2, §3, §4, §5, §6, §7, §8, §9, §10

Interleukin (IL)6 [1] = assay: TNFα-stimulated HaCaT keratinocytes, release of IL6 into the medium (ELISA), Experiment 1
Experimental: (§11) In a second assay, the human keratinocyte cell line HaCat was stimulated with the inflammatory cytokine TNFα and the release of Interleukin (IL)6 into the medium was analysed with a commercially available “Enzyme Linked Immunosorbent Assay” (ELISA).
(§12) HaCaT cells were cultivated under the conditions explained in detail in Wertz et al., Free Radical Biology & Medicine, Vol. 37, No. 5, pp. 654-670, 2004. Cells were pre-cultivated in medium containing with lycopene at a concentration of 1 μmol/L for 48 h to give the cells sufficient time to accumulate lycopene. Lycopene was solubilized in a stock solution with Tetrahydrofuran (THF) and diluted into the medium such that the end concentration was 0.1% THF. After the pre-incubation period, cells were stimulated with 10 μg/ml TNFα for 5 h, after which the medium was collected and frozen. Cells were harvested by trypsinisation and counted according to standard procedures. Il6 levels in the medium were standardized to the number of cells in the wells and expressed as pg/10^6 cells

Interleukin (IL)6 [2] = assay: HaCaT keratinocytes, base line production of IL6 (no TNFα), Experiment 2
Experimental: as §11
as §12, with “After the pre-incubation period, cells were stimulated with 10 μg/ml TNFα for 5 h, after which the medium was collected and frozen.” left out
This experiment was performed to investigate whether two other carotenoid representatives, beta-carotene and beta-cryptoxanthin, are able to reduce the general base line production of inflammatory mediators of normal skin

(−)-Epigallocatechin gallate [EGCG]
HBD2, % compared to the control treated only with cytokine mix (HBD2; 0.2 μmol/L): 59%
HBD2, % compared to the control treated only with cytokine mix (HBD2; 1.0 μmol/L): 43%
HBD2, % compared to the control treated only with cytokine mix (HBD2; 5.0 μmol/L): 33%
Effect on cytokine mix induction of HBD2/4 mRNA (in words) (HBD2): strongly inhibited
S100A7, % compared to the control treated only with cytokine mix (S100A7/psoriasin; 0.2 μmol/L): 66%
S100A7, % compared to the control treated only with cytokine mix (S100A7/psoriasin; 1.0 μmol/L): 20%
S100A7, % compared to the control treated only with cytokine mix (S100A7/psoriasin; 5.0 μmol/L): 27%
Effect on cytokine mix induction of S100A7 mRNA (in words) (S100A7/psoriasin): strongly inhibited

OCCc1ccc(O)c(O)c1 [Hydroxytyrosol, hydroxytyrosol]
HBD2, % compared to the control treated only with cytokine mix (HBD2; 0.2 μmol/L): 50%
HBD2, % compared to the control treated only with cytokine mix (HBD2; 1.0 μmol/L): 51%
HBD2, % compared to the control treated only with cytokine mix (HBD2; 5.0 μmol/L): 40%
S100A7, % compared to the control treated only with cytokine mix (S100A7/psoriasin; 0.2 μmol/L): 60%
S100A7, % compared to the control treated only with cytokine mix (S100A7/psoriasin; 1.0 μmol/L): 57%
S100A7, % compared to the control treated only with cytokine mix (S100A7/psoriasin; 5.0 μmol/L): 49%

CC(C)=CCC/C(C)=C/C=C/C(C)=C/C=C/C(C)=C/C=C/C=C(C)/C=C/C=C(C)/C=C/C=C(\C)CCC=C(C)C [Lycopene, lycopene]
Effect on reaction of keratinocytes to pro-inflammatory stimulus (in words) (Interleukin (IL)6 [1]): significantly reduce

Oc1ccc(C=Cc2cc(O)cc(O)c2)cc1 [Resveratrol, resveratrol]
HBD2, % compared to the control treated only with cytokine mix (HBD2; 0.2 μmol/L): 61%
HBD2, % compared to the control treated only with cytokine mix (HBD2; 1.0 μmol/L): 51%
HBD2, % compared to the control treated only with cytokine mix (HBD2; 5.0 μmol/L): 47%
Effect on cytokine mix induction of HBD2/4 mRNA (in words) (HBD2): strongly inhibited
S100A7, % compared to the control treated only with cytokine mix (S100A7/psoriasin; 0.2 μmol/L): 68%
S100A7, % compared to the control treated only with cytokine mix (S100A7/psoriasin; 1.0 μmol/L): 66%
S100A7, % compared to the control treated only with cytokine mix (S100A7/psoriasin; 5.0 μmol/L): 53%
Effect on cytokine mix induction of S100A7 mRNA (in words) (S100A7/psoriasin): strongly inhibited

CC1=C(/C=C/C(C)=C/C=C/C(C)=C/C=C/C=C(C)/C=C/C=C(C)/C=C/C2=C(C)C[C@@H](O)CC2(C)C)C(C)(C)CCC1 [Beta-cryptoxanthin, beta-cryptoxanthin]
Effect on base line IL6 secretion (in words) (Interleukin (IL)6 [2]): moderate effect
IL6 pg/10^6 cells ± SD (Interleukin (IL)6 [2]; 0.1 μmol/L): 264.76 pg/10^6 cells
IL6 pg/10^6 cells ± SD (Interleukin (IL)6 [2]; 0.25 μmol/L): 268.46 pg/10^6 cells
IL6 pg/10^6 cells ± SD (Interleukin (IL)6 [2]; 0.5 μmol/L): 286.77 pg/10^6 cells

CC1=C(/C=C/C(C)=C/C=C/C(C)=C/C=C/C=C(C)/C=C/C=C(C)/C=C/C2=C(C)CCCC2(C)C)C(C)(C)CCC1 [Beta-carotene, beta-carotene]
Effect on base line IL6 secretion (in words) (Interleukin (IL)6 [2]): can reduce the base line level
IL6 pg/10^6 cells ± SD (Interleukin (IL)6 [2]; 0.1 μmol/L): 315.86 pg/10^6 cells
IL6 pg/10^6 cells ± SD (Interleukin (IL)6 [2]; 0.25 μmol/L): 225.15 pg/10^6 cells
IL6 pg/10^6 cells ± SD (Interleukin (IL)6 [2]; 1.0 μmol/L): 241.8 pg/10^6 cells
IL6 pg/10^6 cells ± SD (Interleukin (IL)6 [2]; 3.0 μmol/L): 291.85 pg/10^6 cells
